Experimental data: ChEMBL document CHEMBL4265887 (Bioorg Med Chem Lett, 2018)
Values after ≈ are worked out from the molar mass of the structure shown. Active and inactive are the calls of the source. The rule behind the calls is not given here.

Columns and labels:
[1] = target: CDK2/Cyclin A2 (Homo sapiens) (UniProt P24941+P20248); experiment: Inhibition of CDK2/cyclin A (unknown origin) at 1 uM; format: protein-complex assay
[2] = target: Serine/threonine-protein kinase mTOR (Homo sapiens) (UniProt P42345); experiment: Inhibition of mTOR (unknown origin) at 1 uM
[3] = target: Epithelial discoidin domain-containing receptor 1 (Homo sapiens) (UniProt Q08345); experiment: Inhibition of DDR1 (unknown origin) at 1 uM
[4] = target: T1, Aurora kinase A (Homo sapiens, UniProt O14965); experiment: Inhibition of recombinant Aurora A (unknown origin) using TAMRA-PKAtide as substrate after 30 mins by fluorescence polarization assay
T1 sequence (O14965 whole entry): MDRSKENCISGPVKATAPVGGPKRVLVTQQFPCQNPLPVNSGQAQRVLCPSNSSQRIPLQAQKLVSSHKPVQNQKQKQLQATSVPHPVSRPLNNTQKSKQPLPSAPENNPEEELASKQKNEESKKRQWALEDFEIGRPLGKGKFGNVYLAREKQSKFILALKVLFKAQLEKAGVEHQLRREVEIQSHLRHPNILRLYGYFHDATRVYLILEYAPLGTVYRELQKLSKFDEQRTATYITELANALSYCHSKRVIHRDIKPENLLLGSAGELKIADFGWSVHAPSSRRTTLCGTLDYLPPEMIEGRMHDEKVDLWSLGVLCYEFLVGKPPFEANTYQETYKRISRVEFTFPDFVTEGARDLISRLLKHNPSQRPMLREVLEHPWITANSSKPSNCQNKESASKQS

[5] = system: HCT-116; experiment: Induction of apoptosis in human HCT116 cells at 100 nM after 72 hrs by Annexin V-FITC staining-based flow cytometric analysis; format: functional, cell-based
[6] = target: Interleukin-1 receptor-associated kinase 4 (Homo sapiens) (UniProt Q9NWZ3); experiment: Inhibition of IRAK4 (unknown origin) at 1 uM
[7] = target: Mitogen-activated protein kinase 3 (Homo sapiens) (UniProt P27361); experiment: Inhibition of ERK1 (unknown origin) at 1 uM
[8] = system: HCT-116; experiment: Induction of apoptosis in human HCT116 cells at 1 uM after 72 hrs by Annexin V-FITC/propidium iodide staining-based flow cytometric analysis; format: functional, cell-based
[9] = target: Tyrosine-protein kinase ABL1 (Homo sapiens) (UniProt P00519); experiment: Inhibition of ABL (unknown origin) at 1 uM
[10] = target: Cyclin-dependent kinase 4/cyclin D1 (Homo sapiens) (UniProt P11802+P24385); experiment: Inhibition of CDK4/Cyclin D1 (unknown origin) at 1 uM; format: protein-complex assay
[11] = target: Serine/threonine-protein kinase PAK 1 (Homo sapiens) (UniProt Q13153); experiment: Inhibition of PAK1 (unknown origin) at 1 uM
[12] = system: HCT-116; experiment: Inhibition of cytokinesis in human HCT116 cells at 1 uM after 24 hrs by propidium iodide/RNase staining-based flow cytometric analysis; format: functional, cell-based
[13] = target: Tyrosine-protein kinase receptor UFO (Homo sapiens) (UniProt P30530); experiment: Inhibition of AXL (unknown origin) at 1 uM
[14] = target: Death-associated protein kinase 3 (Homo sapiens) (UniProt O43293); experiment: Inhibition of ZIPK (unknown origin) at 1 uM
[15] = target: Tyrosine-protein kinase SYK (Homo sapiens) (UniProt P43405); experiment: Inhibition of SYK (unknown origin) at 1 uM
[16] = target: Protein kinase C alpha type (Homo sapiens) (UniProt P17252); experiment: Inhibition of PKCalpha (unknown origin) at 1 uM
[17] = target: Receptor-type tyrosine-protein kinase FLT3 (Homo sapiens) (UniProt P36888); experiment: Inhibition of FLT3 (unknown origin) at 1 uM
[18] = target: Mast/stem cell growth factor receptor Kit (Homo sapiens) (UniProt P10721); experiment: Inhibition of c-KIT (unknown origin) at 1 uM
[19] = target: Fibroblast growth factor receptor 3 (Homo sapiens) (UniProt P22607); experiment: Inhibition of FGFR3 (unknown origin) at 1 uM
[20] = target: Proto-oncogene tyrosine-protein kinase receptor Ret (Homo sapiens) (UniProt P07949); experiment: Inhibition of RET (unknown origin) at 1 uM
[21] = system: HCT-15; experiment: Cytotoxicity against human HCT15 cells assessed as reduction in cell viability after 48 hrs by MTT assay; format: functional, cell-based; conditions: HCT-15, 48 h
[22] = target: Inhibitor of nuclear factor kappa-B kinase subunit beta (Homo sapiens) (UniProt O14920); experiment: Inhibition of IKKbeta (unknown origin) at 1 uM
[23] = target: T2, Aurora kinase B (Homo sapiens, UniProt Q96GD4); experiment: Inhibition of recombinant Aurora B (unknown origin) using TAMRA-PKAtide as substrate after 1 hr by fluorescence polarization assay
[24] = Solubility of the compound in phosphate buffer of pH 7.4 after 24 hrs by RP-HPLC analysis; format: physicochemical; conditions: phosphate buffer, pH 7.4
[25] = Solubility of the compound in phosphate buffer of pH 2 after 24 hrs by RP-HPLC analysis; format: physicochemical
[26] = target: Angiopoietin-1 receptor (Homo sapiens) (UniProt Q02763); experiment: Inhibition of TIE2 (unknown origin) at 1 uM
[27] = target: Insulin receptor (Homo sapiens) (UniProt P06213); experiment: Inhibition of INSR (unknown origin) at 1 uM
[28] = target: Platelet-derived growth factor receptor beta (Homo sapiens) (UniProt P09619); experiment: Inhibition of PDGFRbeta (unknown origin) at 1 uM
[29] = target: Serine/threonine-protein kinase B-raf (Homo sapiens) (UniProt P15056); experiment: Inhibition of BRAF (unknown origin) at 1 uM
[30] = target: Rho-associated protein kinase 2 (Homo sapiens) (UniProt O75116); experiment: Inhibition of ROCK2 (unknown origin) at 1 uM
[31] = target: Proto-oncogene tyrosine-protein kinase Src (Homo sapiens) (UniProt P12931); experiment: Inhibition of c-Src (unknown origin) at 1 uM
[32] = target: Serine/threonine-protein kinase PAK 4 (Homo sapiens) (UniProt O96013); experiment: Inhibition of PAK4 (unknown origin) at 1 uM
[33] = target: T2, Aurora kinase B; experiment: Inhibition of Aurora B phosphorylation at Thr232 residue in human HCT116 cells over 100 nM after 3 hrs by Western blot method; format: cell-based
[34] = target: Serine/threonine-protein kinase pim-1 (Homo sapiens) (UniProt P11309); experiment: Inhibition of PIM1 (unknown origin) at 1 uM
[35] = target: Serine/threonine-protein kinase Chk1 (Homo sapiens) (UniProt O14757); experiment: Inhibition of CHK1 (unknown origin) at 1 uM
[36] = target: Tyrosine-protein kinase JAK3 (Homo sapiens) (UniProt P52333); experiment: Inhibition of JAK3 (unknown origin) at 1 uM
[37] = target: High affinity nerve growth factor receptor (Homo sapiens) (UniProt P04629); experiment: Inhibition of TrkA (unknown origin) at 1 uM
[38] = system: HCT-116; experiment: Cytotoxicity against human HCT116 cells assessed as reduction in cell viability after 48 hrs by MTT assay; format: functional, cell-based; conditions: HCT-116, 48 h
[39] = target: Vascular endothelial growth factor receptor 2 (Homo sapiens) (UniProt P35968); experiment: Inhibition of VEGFR2 (unknown origin) at 1 uM
[40] = system: HCT-116; experiment: Inhibition of cytokinesis in human HCT116 cells at 100 nM after 24 hrs by propidium iodide/RNase staining-based flow cytometric analysis; format: functional, cell-based
[41] = target: Hepatocyte growth factor receptor (Homo sapiens) (UniProt P08581); experiment: Inhibition of c-MET (unknown origin) at 1 uM
[42] = target: Tyrosine-protein kinase CSK (Homo sapiens) (UniProt P41240); experiment: Inhibition of CSK (unknown origin) at 1 uM

T2 sequence (Q96GD4 whole entry): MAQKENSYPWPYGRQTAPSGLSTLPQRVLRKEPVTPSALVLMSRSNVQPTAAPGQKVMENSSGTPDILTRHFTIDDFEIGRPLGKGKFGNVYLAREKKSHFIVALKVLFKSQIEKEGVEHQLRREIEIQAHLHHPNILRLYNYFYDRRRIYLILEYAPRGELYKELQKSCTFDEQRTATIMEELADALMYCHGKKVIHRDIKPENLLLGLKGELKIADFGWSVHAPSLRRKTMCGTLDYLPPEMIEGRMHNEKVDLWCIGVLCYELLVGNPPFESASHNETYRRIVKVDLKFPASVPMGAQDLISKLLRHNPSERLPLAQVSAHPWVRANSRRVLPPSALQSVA
Tyrosine-protein kinase JAK3 (Homo sapiens), sequence (P52333 whole entry): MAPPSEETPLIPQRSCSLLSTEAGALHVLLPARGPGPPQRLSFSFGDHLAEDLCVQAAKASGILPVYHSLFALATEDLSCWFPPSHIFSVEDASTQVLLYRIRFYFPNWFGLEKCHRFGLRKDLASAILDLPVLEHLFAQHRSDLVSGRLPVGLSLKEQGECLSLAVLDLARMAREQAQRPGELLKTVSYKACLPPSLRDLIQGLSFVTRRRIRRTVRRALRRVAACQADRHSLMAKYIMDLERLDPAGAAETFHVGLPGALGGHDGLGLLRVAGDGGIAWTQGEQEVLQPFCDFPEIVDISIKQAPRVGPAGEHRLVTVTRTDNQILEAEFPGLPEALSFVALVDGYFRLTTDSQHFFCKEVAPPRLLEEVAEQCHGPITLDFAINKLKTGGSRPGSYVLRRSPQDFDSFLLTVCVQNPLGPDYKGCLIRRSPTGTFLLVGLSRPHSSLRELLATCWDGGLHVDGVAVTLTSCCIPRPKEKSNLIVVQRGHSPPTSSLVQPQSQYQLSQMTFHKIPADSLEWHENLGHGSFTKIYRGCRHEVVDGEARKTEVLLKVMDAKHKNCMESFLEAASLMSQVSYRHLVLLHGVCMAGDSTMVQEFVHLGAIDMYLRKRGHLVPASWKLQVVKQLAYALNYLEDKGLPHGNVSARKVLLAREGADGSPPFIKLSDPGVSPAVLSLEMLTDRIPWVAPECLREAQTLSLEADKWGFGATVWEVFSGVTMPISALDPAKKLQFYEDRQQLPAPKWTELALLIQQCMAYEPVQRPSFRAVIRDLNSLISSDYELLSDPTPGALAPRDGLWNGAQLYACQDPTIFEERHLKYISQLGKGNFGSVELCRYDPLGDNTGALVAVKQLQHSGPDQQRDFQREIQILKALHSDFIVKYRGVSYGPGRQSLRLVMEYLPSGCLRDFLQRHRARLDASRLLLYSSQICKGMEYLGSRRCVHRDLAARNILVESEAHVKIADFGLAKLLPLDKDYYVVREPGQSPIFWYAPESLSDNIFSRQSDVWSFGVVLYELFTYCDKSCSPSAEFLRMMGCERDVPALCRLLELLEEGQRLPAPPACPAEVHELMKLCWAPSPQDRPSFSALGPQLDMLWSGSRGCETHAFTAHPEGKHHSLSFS
Death-associated protein kinase 3 (Homo sapiens), sequence (O43293 whole entry, looked up): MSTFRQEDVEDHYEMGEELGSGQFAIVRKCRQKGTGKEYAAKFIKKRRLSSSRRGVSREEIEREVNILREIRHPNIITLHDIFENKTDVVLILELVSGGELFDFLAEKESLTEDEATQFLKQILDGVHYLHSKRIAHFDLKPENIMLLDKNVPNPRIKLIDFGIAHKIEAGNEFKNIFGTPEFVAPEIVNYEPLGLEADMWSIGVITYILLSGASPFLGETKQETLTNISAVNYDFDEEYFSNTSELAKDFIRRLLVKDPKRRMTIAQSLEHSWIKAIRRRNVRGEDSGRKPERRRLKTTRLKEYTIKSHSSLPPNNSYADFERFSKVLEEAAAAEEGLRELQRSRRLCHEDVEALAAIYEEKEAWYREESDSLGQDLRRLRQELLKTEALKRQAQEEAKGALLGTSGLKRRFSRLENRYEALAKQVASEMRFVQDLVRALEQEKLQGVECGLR
Interleukin-1 receptor-associated kinase 4 (Homo sapiens), sequence (Q9NWZ3 whole entry): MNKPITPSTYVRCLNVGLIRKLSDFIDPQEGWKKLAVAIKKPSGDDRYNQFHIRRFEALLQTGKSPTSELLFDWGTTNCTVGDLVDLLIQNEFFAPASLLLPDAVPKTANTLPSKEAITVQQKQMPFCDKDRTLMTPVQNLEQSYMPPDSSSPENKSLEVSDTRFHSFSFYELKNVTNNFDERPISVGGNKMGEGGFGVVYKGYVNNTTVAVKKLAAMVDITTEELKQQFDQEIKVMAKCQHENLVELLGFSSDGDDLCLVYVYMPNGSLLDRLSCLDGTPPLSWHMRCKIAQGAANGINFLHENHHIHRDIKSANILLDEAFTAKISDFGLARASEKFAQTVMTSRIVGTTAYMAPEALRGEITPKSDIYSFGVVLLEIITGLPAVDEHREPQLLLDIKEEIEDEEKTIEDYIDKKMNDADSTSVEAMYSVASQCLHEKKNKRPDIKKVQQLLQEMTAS
Mitogen-activated protein kinase 3 (Homo sapiens), sequence (P27361 whole entry): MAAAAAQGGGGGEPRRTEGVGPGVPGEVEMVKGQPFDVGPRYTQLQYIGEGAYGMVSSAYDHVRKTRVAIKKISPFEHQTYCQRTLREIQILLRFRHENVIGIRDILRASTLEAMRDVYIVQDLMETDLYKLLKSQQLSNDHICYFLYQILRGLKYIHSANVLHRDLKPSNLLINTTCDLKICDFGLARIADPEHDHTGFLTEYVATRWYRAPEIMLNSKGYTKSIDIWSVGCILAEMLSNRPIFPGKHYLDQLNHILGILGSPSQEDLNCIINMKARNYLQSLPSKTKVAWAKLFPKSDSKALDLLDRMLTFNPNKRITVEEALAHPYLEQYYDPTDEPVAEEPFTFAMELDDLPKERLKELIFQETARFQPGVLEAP
Angiopoietin-1 receptor (Homo sapiens), sequence (Q02763 whole entry): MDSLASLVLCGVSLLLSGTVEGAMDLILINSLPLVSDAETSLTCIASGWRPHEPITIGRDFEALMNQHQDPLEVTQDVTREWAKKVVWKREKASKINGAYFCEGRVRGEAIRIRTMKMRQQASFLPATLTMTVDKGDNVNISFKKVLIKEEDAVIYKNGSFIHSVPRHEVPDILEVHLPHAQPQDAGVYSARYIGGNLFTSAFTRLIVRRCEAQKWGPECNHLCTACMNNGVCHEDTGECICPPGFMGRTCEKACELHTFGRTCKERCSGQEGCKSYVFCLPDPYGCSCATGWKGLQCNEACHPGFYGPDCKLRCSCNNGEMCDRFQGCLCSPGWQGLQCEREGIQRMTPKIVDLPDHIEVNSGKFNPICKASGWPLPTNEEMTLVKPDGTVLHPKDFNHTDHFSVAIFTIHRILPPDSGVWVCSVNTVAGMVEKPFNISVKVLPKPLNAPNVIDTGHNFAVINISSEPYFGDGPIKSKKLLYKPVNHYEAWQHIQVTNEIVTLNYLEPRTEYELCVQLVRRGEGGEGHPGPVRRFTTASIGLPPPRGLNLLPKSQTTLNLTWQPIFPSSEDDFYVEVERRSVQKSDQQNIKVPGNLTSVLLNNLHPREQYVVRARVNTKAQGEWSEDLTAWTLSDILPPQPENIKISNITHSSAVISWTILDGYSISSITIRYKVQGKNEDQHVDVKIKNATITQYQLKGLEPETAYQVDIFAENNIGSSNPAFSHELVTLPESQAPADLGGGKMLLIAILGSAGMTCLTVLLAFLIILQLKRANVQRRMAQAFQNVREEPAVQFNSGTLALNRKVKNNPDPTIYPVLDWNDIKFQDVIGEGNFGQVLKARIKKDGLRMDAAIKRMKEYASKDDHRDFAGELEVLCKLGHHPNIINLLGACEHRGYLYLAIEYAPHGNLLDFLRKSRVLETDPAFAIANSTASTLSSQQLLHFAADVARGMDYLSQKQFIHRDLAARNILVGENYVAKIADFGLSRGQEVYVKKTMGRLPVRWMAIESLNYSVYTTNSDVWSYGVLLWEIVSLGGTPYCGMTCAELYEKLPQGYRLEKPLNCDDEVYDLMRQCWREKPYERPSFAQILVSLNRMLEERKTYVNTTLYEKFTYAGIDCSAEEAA
Mast/stem cell growth factor receptor Kit (Homo sapiens), sequence (P10721 whole entry): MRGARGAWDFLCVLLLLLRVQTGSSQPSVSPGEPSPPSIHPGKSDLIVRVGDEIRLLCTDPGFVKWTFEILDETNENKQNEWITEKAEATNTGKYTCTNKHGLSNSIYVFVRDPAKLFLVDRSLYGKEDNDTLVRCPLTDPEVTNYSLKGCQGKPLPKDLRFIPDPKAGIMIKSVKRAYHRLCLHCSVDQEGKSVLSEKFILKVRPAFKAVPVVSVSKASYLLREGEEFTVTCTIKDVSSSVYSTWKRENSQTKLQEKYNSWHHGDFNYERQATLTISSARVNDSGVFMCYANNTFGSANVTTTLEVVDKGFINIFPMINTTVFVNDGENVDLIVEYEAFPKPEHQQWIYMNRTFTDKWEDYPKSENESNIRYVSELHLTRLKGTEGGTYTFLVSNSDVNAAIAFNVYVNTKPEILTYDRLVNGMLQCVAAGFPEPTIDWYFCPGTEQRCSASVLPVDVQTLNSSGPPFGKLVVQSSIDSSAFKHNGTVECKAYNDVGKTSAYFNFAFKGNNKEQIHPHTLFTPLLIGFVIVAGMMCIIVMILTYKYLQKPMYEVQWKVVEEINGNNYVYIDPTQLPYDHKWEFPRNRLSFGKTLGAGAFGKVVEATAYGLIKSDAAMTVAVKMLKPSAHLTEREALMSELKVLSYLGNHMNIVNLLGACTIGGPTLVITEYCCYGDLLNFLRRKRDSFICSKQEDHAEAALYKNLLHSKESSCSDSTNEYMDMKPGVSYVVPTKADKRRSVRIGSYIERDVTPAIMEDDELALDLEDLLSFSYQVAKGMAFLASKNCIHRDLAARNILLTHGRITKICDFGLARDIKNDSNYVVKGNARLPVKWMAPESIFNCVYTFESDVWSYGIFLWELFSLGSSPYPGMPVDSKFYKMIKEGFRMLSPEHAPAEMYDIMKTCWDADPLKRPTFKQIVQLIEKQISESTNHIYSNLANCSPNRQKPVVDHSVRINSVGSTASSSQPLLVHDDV

CNC(=O)Nc1sc2c(C(C)C)cc(NS(=O)(=O)N(C)C)cc2c1C(N)=O
inhibition [1]: 22.8%
inhibition [2]: 3.66%
inhibition [3]: 75.9%
IC50 [4]: 9 nM
Activity [5]: inactive
inhibition [6]: 8.14%
inhibition [7]: 17.6%
Activity [8]: inactive
inhibition [9]: 88.8%
inhibition [10]: 27%
inhibition [11]: 5.28%
Cytokinesis inhibition (active/inactive call) [12]: Active
inhibition [13]: 37.2%
inhibition [14]: 39.6%
inhibition [15]: 51.1%
inhibition [16]: 17.9%
inhibition [17]: 46.6%
inhibition [18]: 28.9%
inhibition [19]: 14.4%
inhibition [20]: 97.2%
IC50 [21]: 1600 nM
inhibition [22]: 30.7%
IC50 [23]: 23 nM
solubility at 24 h [24]: 13.1 µM (≈ 5.42 µg/mL)
solubility at 24 h [25]: 8 µM (≈ 3.31 µg/mL)
inhibition [26]: 0.75%
inhibition [27]: 3%
inhibition [28]: 61.3%
inhibition [29]: -0.3%
inhibition [30]: 15.7%
inhibition [31]: 94.4%
inhibition [32]: 11.2%
inhibition [33]: Active
inhibition [34]: 41.6%
inhibition [35]: 16.4%
inhibition [36]: 54.6%
inhibition [37]: 46.9%
IC50 [38]: 300 nM
inhibition [39]: 68.2%
Cytokinesis inhibition (active/inactive call) [40]: Active
inhibition [41]: 2.76%
inhibition [42]: 19.5%
